{"source": "patent US20140363391A1", "about": "“SYSTEM AND METHOD FOR ADMINISTERING POLOXAMERS AND ANESTHETICS WHILE PERFORMING CPR AND MINIMIZING REPERFUSION INJURY” (priority 2013, published 2014)", "tested_on": "animals receiving CPR", "assay": "Animal studies with administration of an anesthetic gas during CPR", "assay_type": "in vivo", "details": "compared with other inhaled anesthetics", "excerpt": "In one embodiment, the administered anesthetic includes sevoflurane. Other volatile anesthetics that may be administered include: halothane, enflurane, and desflurane isoflurane, xenon, helium and the like. […] These anesthetics may provide protective effects when administered before or during CPR and help stabilize the brain, heart, or body to help the heart, brain, and/or body to stay fresh. It is believed that some anesthetic agents provide these effects by attenuating the mitochondrial membrane permeability, or manipulating and protecting the mitochondrial membrane pores. It is believed that during ischemia, permeability pores in the mitochondria cell membrane open up causing the mitochondria to swell. In such a condition, the mitochondria are destroyed or damaged when blood flow is reestablished. The anesthetic may help protects against such damage, especially if the anesthetic is delivered or delivery is initiated early in reestablishing blood flow. Some volatile anesthetics like Xenon provide anesthesia by non-competitive inhibit N-methyl-D-aspartate receptors. Due to the fact that reperfusion injury occurs very early during the resuscitation efforts (within 2-3 minutes from the imitation of CPR) it is preferable that the anesthetic is delivered or delivery is initiated within the first 5 minutes of CPR efforts. […]"}
{"smiles": "FCOC(C(F)(F)F)C(F)(F)F", "note": "[Sevoflurane, sevoflurane]", "values": [{"measurement": "cardiodepressant effects", "result": "less of cardiodepressant effects"}, {"measurement": "protection from reperfusion injury", "result": "significant protection from reperfusion injury"}]}
